Test system: acute and delayed vomiting induced by cisplatin in ferrets
Assay: Acute and delayed vomiting induced by cisplatin in ferrets, oral dosing once or twice daily
Assay type: in vivo
Conditions: cisplatin 5 mg/kg i.p.
Description: Male 4 to 6 ferrets (1.2 to 2.2 kg) per one group were used. Cisplatin was intraperitoneally given at 5 mg/5ml/kg. 30 minutes prior to cisplatin administration and 24 and 48 hours after cisplatin administration, predetermined doses of the compound No. 3 were orally given in case of dosing once daily. 30 minutes prior to cisplatin administration and 12, 24, 36, 48 and 60 hours after cisplatin administration, predetermined doses of the compound No. 3 were orally given in case of dosing twice daily. 30 minutes prior to the dosing of the compound No. 3, a small amount of a feed was given to the animals in any of the cases. Similarly, a predetermined volume of 0.5 % methyl cellulose solution was similarly given orally to a control animal group under no fasting. A predetermined dose of ondansetron was orally given to the animals under fasting. To a control animal group of ondansetron, a predetermined volume of physiological saline was orally given to the animals under fasting. The frequency of vomiting was counted in number, up to 72 hours after cisplatin administration.
The compound No. 3 was suspended in 0.5 % methyl cellulose solution, for oral dosing at predetermined doses at a ratio of 1 ml per 1 kg body weight. An injection of ondansetron at 0.2 w/v % concentration was orally given at a predetermined volume. Additionally, 0.5 % methyl cellulose solution was orally given at a ratio of 1 ml per 1 kg body weight, while physiological saline was orally given at a ratio of 0.5 to 1.5 ml per 1 kg body weight. The data relating to the frequency of vomiting, the time period (latency) until first vomiting and the time period from the occurrence of vomiting to the termination thereof were statistically analyzed by the Dunnett test, with reference to the difference from the control group.
The acute vomiting suppression ratio, delayed vomiting suppression ratio and total vomiting suppression ratio were calculated by the following formula. [Frequency of retching or vomiting in control] - [Frequency of retching or vomiting in animals dosed with compound No. 3] / [Frequency of retching or vomiting in control] x 100 (%) [formula]

[1] = 0.03 mg/kg × 2 p.o., twice daily
[2] = 0.1 mg/kg × 2 p.o., twice daily
[3] = 0.3 mg/kg × 2 p.o., twice daily
[4] = 1 mg/kg p.o. twice daily, listed as compound No. 3
[5] = 3 mg/kg p.o. twice daily, listed as compound No. 3

With `Cc1ccc(-c2c3n(c(=O)c4ncccc24)CC[C@@H](C)CN(Cc2cc(C(F)(F)F)cc(C(F)(F)F)c2)C3=O)cc1` [Cpd. No.3, (9R)-7-[3,5-bis(trifluoromethyl)benzyl]-6,7,8,9,10,11-hexahydro-9-methyl-5-(4-methylphenyl)-6,13-dioxo-13H-[1,4]diazocino[2,1-g][1,7]naphthylidine] the “Acute vomiting suppression ratio (0 to 24 hours after cisplatin dosing)” value (“Acute vomiting suppression ratio” for short) (0.03 mg/kg p.o. twice daily) was 25 % NS, the “Delayed vomiting suppression ratio (24 to 72 hours after cisplatin dosing)” value (0.03 mg/kg p.o. twice daily) was 31 % NS and the “Total vomiting suppression ratio (0 to 72 hours after cisplatin dosing)” value (shortened to “Total vomiting suppression ratio”) (0.03 mg/kg p.o. twice daily) was 30 % NS. The “Duration (in hour; mean ± SD)” value [1] was 50.8 ± 7.3 h, the “Latency (in hour; mean ± SD)” value [1] was 13.4 ± 4.9 h and the “On day 0 (0-24 hours): frequency of retching and vomiting (mean ± SD)” value (“On day 0 (0-24 hours): frequency … (mean ± SD)” below) [1] was 24.8 ± 14.8. For the same compound, the “On day 0 (0-24 hours): number of ferrets with vomiting/ number of tested ferrets” value (“On day 0 (0-24 hours): number of ferrets” below) [1] was 3/4, the “On days 1-2(24-48 hours): frequency of retching and vomiting (mean ± SD)” value (from here on “On days 1-2(24-48 hours) … (mean ± SD)”) [1] was 245.8 ± 34.3 and the “On days 1-2(24-48 hours): number of ferrets with vomiting/ number of tested ferrets” value (“On days 1-2(24-48 hours): number” for short) [1] was 4/4. For the same compound, the “Total frequency of retching and vomiting (on days 0-2; 0-72 hours)” value (shortened to “Total frequency of retching and vomiting”) [1] was 270.5 ± 43.7, the “Acute vomiting suppression ratio” value (0.1 mg/kg p.o. twice daily) was 21 % NS and the “Delayed vomiting suppression ratio (24 to 72 hours after cisplatin dosing)” value (0.1 mg/kg p.o. twice daily) was 37 % a. For the same compound, the “Effect on delayed vomiting induced by cisplatin (in words)” value (0.1 mg/kg p.o. twice daily) was “significantly suppressed”, the “Total vomiting suppression ratio” value (0.1 mg/kg p.o. twice daily) was 36 % a and the “Duration (in hour; mean ± SD)” value [2] was 54.8 ± 6.1 h. The “Latency (in hour; mean ± SD)” value [2] was 13.3 ± 6.3 h, the “On day 0 (0-24 hours): frequency … (mean ± SD)” value [2] was 26.0 ± 11.2 and the “On day 0 (0-24 hours): number of ferrets” value [2] was 3/4. For the same compound, the “On days 1-2(24-48 hours) … (mean ± SD)” value [2] was 222.0 ± 20.7 a, the “On days 1-2(24-48 hours): number” value [2] was 4/4 and the “Total frequency of retching and vomiting” value [2] was 248.0 ± 10.7 a. The “Acute vomiting suppression ratio” value (0.3 mg/kg p.o. twice daily) was 100 % NS, the “Delayed vomiting suppression ratio (24 to 72 hours after cisplatin dosing)” value (0.3 mg/kg p.o. twice daily) was 41 % b and the “Total vomiting suppression ratio” value (0.3 mg/kg p.o. twice daily) was 46 % b. For the same compound, the “Duration (in hour; mean ± SD)” value [3] was 31.1 ± 1.9 a hour, the “Latency (in hour; mean ± SD)” value [3] was 34.5 ± 3.4 b hour and the “On day 0 (0-24 hours): frequency … (mean ± SD)” value [3] was 0. For the same compound, the “On day 0 (0-24 hours): number of ferrets” value [3] was 0/4, the “On days 1-2(24-48 hours) … (mean ± SD)” value [3] was 209.3 ± 14.0 b and the “On days 1-2(24-48 hours): number” value [3] was 4/4. The “Total frequency of retching and vomiting” value [3] was 209.3 ± 14.0 b, the “Acute vomiting suppression ratio” value (1 mg/kg p.o. twice daily) was 0 % NS and the “Delayed vomiting suppression ratio (24 to 72 hours after cisplatin dosing)” value (1 mg/kg p.o. twice daily) was 70 % a. For the same compound, the “Total vomiting suppression ratio” value (1 mg/kg p.o. twice daily) was 54 % b, the “Delayed vomiting suppression ratio (24 to 72 hours after cisplatin dosing)” value [4] was 70% and the “Total vomiting suppression ratio” value [4] was 54%. The “Duration (in hour; mean ± SD)” value (1 mg/kg × 2 p.o., twice daily) was 64.8 ± 2.2 h, the “Latency (in hour; mean ± SD)” value (1 mg/kg × 2 p.o., twice daily) was 3.4 ± 1.1 h and the “On day 0 (0-24 hours): frequency … (mean ± SD)” value (1 mg/kg × 2 p.o., twice daily) was 71.8 ± 20.6. The “On day 0 (0-24 hours): number of ferrets” value (1 mg/kg × 2 p.o., twice daily) was 4/4, the “On days 1-2(24-48 hours) … (mean ± SD)” value (1 mg/kg × 2 p.o., twice daily) was 108.0 ± 9.6 b and the “On days 1-2(24-48 hours): number” value (1 mg/kg × 2 p.o., twice daily) was 4/4. For the same compound, the “Total frequency of retching and vomiting” value (1 mg/kg × 2 p.o., twice daily) was 179.8 ± 21.0 b, the “Delayed vomiting suppression ratio (0 to 72 hours after cisplatin dosing)” value (3 mg/kg p.o. once daily, listed as compound No. 3) was 42% and the “Acute vomiting suppression ratio” value (3 mg/kg p.o. twice daily) was 82 % NS. For the same compound, the “Delayed vomiting suppression ratio (24 to 72 hours after cisplatin dosing)” value (3 mg/kg p.o. twice daily) was 59 % b, the “Total vomiting suppression ratio” value (3 mg/kg p.o. twice daily) was 61 % b and the “Acute vomiting suppression ratio” value [5] was 82%. For the same compound, the “Delayed vomiting suppression ratio (24 to 72 hours after cisplatin dosing)” value [5] was 59%, the “Acute vomiting suppression ratio” value (3 mg/kg p.o., once daily) was 48 % NS and the “Delayed vomiting suppression ratio (0 to 72 hours after cisplatin dosing)” value (3 mg/kg p.o., once daily) was 42 % a. For the same compound, the “Delayed vomiting suppression ratio (24 to 72 hours after cisplatin dosing)” value (3 mg/kg p.o., once daily) was 40 % NS, the “Duration (in hour; mean ± SD)” value (3 mg/kg p.o., once daily) was 61.2 ± 1.2 h and the “Latency (in hour; mean ± SD)” value (3 mg/kg p.o., once daily) was 7.8 ± 1.1 h. For the same compound, the “On day 0 (0-24 hours): frequency … (mean ± SD)” value (3 mg/kg p.o., once daily) was 56.8 ± 18.4, the “On day 0 (0-24 hours): number of ferrets” value (3 mg/kg p.o., once daily) was 4/4 and the “On days 1-2(24-48 hours) … (mean ± SD)” value (3 mg/kg p.o., once daily) was 209.5±23.6. For the same compound, the “On days 1-2(24-48 hours): number” value (3 mg/kg p.o., once daily) was 4/4, the “Total frequency of retching and actual vomiting (on days 0-2; 0-72 hours)” value (3 mg/kg p.o., once daily) was 266.3 ± 20.6 a and the “Duration (in hour; mean ± SD)” value (3 mg/kg × 2 p.o., twice daily) was 40.9 ± 13.9 h. The “Latency (in hour; mean ± SD)” value (3 mg/kg × 2 p.o., twice daily) was 25.8 ± 10.7 h.

Reference: patent publication EP1145714A1, “DRUGS” (Takeda Chemical Industries, Ltd., priority 1998, dated 2000)
